From patent publication US8329645B2, “Polymyxin derivatives and uses thereof” (priority 2008, dated 2012) come the findings set out here.

≈ marks a conversion by molar mass, not a printed value. Where a SMILES comes first, the peptide text is derived from it. Bridges are numbered along the chain shown (N, C = ends). [ ]: non-standard residue; d: D form. The star is where a group is joined. Decanoyl = CCCCCCCCCC(=O)*; Dab = NCC[C@H](N)C(=O)O

The subject of one assay is E. coli CCUG 41421. Summed up: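 Bacterial suspensions were adjusted to OD546 nm ~0.3 (~10^8 CFU/ml), diluted to 10^7 CFU/ml and spotted onto plates at approx. 10^4 CFU/spot. Plates were incubated 16-20 hours at 35 °C, with polymyxin B sulfate as control.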
Another assay deals with K. pneumoniae CCUG45421. The assay is described as follows: Growth inhibition around wells on LB agar plates. It is filed as cell-based, Klebsiella pneumoniae. Here is the method: (§1) From an overnight-grown culture of IH3080 on LB agar, a suspension of approx. 10^8 cells/ml was prepared in 0.9% NaCl. Aliquots of this suspension were then pipetted on the agar plates and the plates were gently shaken to spread the suspension evenly on the entire surface of the plate. Thereafter, the unabsorbed part of the suspension was removed by using a Pasteur pipette. After the surface had dried, small wells (diameter, 2 mm) were drilled on the plates (five wells per plate) by using a sterile sharp-edged narrow metal tube, single-use pipette tip, and vacuum suction. An alternative method used a swab to spread the inoculum. Samples (4 μl and 10 μl) of the peptide solution in 0.9% NaCl (at concentrations of 1 μg/ml and 0.1 μg/ml) were then pipetted to the wells and the sample fluids were allowed to absorb. Controls included 0.9% NaCl solution without the compound to be tested. The plates were then incubated for 18 h at 37° C. whereafter the diameters of growth inhibition zones around each well were measured; the diameter of the well itself was not reduced. Finally, the diameters were converted to surface areas of growth inhibition (in square mm).
(§2) The susceptibility of eleven Gram-negative bacterial strains (nine different species) to NAB734 and polymyxin B was compared by using the susceptibility determination method described in Example 2. The strains included those belonging to the species of Serratia marcescens and Proteus mirabilis, both species generally known to be resistant to polymyxin. Furthermore, the susceptibility determination was also performed by using the Gram-positive bacterium, Staphylococcus aureus, also generally known to be polymyxin-resistant. Ten of the strains originated from ATCC (American Type Culture Collection, Manassas, Va., U.S.A.), and one from CCUG (Culture Collection of University of Gothenburg, Sweden). The source of E. coli IH3080 has been described in Example 2. Polymyxin B sulfate was from Sigma-Aldrich (St. Louis, Mo., USA).

The subject of the next assay is E. coli ATCC25922. The assay is described as follows: Growth inhibition around wells on LB agar plates. The assay is classed as cell-based, Escherichia coli. Here is the method: as §1, §2

Take `CCCCCCCCCC(=O)N[C@H](C(=O)N[C@H](CO)C(=O)N[C@H]1CCNC(=O)[C@H]([C@@H](C)O)NC(=O)[C@H](CCN)NC(=O)[C@H](CCN)NC(=O)[C@H](CC(C)C)NC(=O)[C@@H](Cc2ccccc2)NC(=O)[C@H](CCN)NC1=O)[C@@H](C)O` [NAB 740, DA-Thr-DSer-cy[Dab-Dab-DPhe-Leu-Dab-Dab-Thr-]] (Decanoyl-T[dS][Dab][Dab][dF]L[Dab][Dab]T; lactam 3-C): the minimum inhibitory concentration (MIC) – broadly, the smallest concentration in the dilution series that meets the test's criterion for growth inhibition – with E. coli CCUG 41421 came to 2 µg/mL (≈ 1.81 µM).

Turning to Polymyxin B [reference compound], the “growth inhibition around a well” value with K. pneumoniae CCUG45421 (4 μg) was found to be 95 square millimeters; with K. pneumoniae CCUG45421 (10 μg), 133 square millimeters; with E. coli ATCC25922 (4 μg) it was 95 square millimeters; in the assay on E. coli ATCC25922 (10 μg), 133 square millimeters.
